From paper PMC12756865, “Inhibitory effect of oestradiol on the cardiac KV7.1/KCNE1 channel is species dependent” (Experimental Physiology, 2025) come the findings set out here.

What all share (format): cell-based
One test addresses T1, rabbit KV7.1/human KCNE1 (Oryctolagus cuniculus; Homo sapiens, UniProt P15382+Q9MYS6).
T1 construct: gene KCNQ1; cross-species complex of two intact wild-type subunits (no fusion): rabbit KV7.1 and human KCNE1 cRNAs co-injected in Xenopus laevis oocytes
Briefly: two-electrode voltage clamp, Xenopus oocytes, change of Gmax. The settings on record: 10 µM; inhibition; EC50 fit ambiguous; pH 7.4, about 20 °C; ethanol vehicle. An excerpt: two-electrode voltage clamp, Xenopus oocytes, change of Gmax on rabbit KV7.1/human KCNE1
A general note: Two-electrode voltage clamp is typically applied to oocytes expressing channels or transporters.

For the next test, the target named is T2, guinea pig KV7.1/KCNE1 (Cavia porcellus, UniProt A6Y9U2+Q60409).
T2 construct: gene KCNQ1; wild-type KV7.1 and KCNE1 cRNAs co-injected in Xenopus laevis oocytes; KCNE1 in excess; four KV7.1 with one to four KCNE1
Described as above. The settings on record: 3 µM; inhibition; EC50 fit ambiguous; pH 7.4, about 20 °C; ethanol vehicle. An excerpt:
two-electrode voltage clamp, Xenopus oocytes, change of Gmax on guinea pig KV7.1/KCNE1

The target in test [1] is T3, human KV7.1/KCNE1 (tested as KV7.1/KCNE1_K69Q) (Homo sapiens, UniProt P15382+P51787, P15382:K69Q).
T3 construct: gene KCNQ1; KV7.1 and KCNE1 cRNAs co-injected in Xenopus laevis oocytes; KCNE1 in excess; four KV7.1 with one to four KCNE1
Briefly: two-electrode voltage clamp, Xenopus oocytes, reduction of Gmax.

Another test addresses T4, rabbit KV7.1/KCNE1 (Oryctolagus cuniculus, UniProt Q28705+Q9MYS6).
T4 construct: gene KCNQ1; wild-type KV7.1 and KCNE1 cRNAs co-injected in Xenopus laevis oocytes; KCNE1 in excess; four KV7.1 with one to four KCNE1
The description is as above.

The target in another test is T5, human KV7.1/rabbit KCNE1 (Homo sapiens; Oryctolagus cuniculus, UniProt P51787+Q28705).
T5 construct: gene KCNQ1; cross-species complex of two intact wild-type subunits (no fusion): human KV7.1 and rabbit KCNE1 cRNAs co-injected in Xenopus laevis oocytes
Briefly: two-electrode voltage clamp, Xenopus oocytes, change of Gmax. The conditions noted are these: 10 µM; inhibition; EC50 fit ambiguous; pH 7.4, about 20 °C; ethanol vehicle. An excerpt: two-electrode voltage clamp, Xenopus oocytes, change of Gmax on human KV7.1/rabbit KCNE1

T3 sequence (P51787 whole entry): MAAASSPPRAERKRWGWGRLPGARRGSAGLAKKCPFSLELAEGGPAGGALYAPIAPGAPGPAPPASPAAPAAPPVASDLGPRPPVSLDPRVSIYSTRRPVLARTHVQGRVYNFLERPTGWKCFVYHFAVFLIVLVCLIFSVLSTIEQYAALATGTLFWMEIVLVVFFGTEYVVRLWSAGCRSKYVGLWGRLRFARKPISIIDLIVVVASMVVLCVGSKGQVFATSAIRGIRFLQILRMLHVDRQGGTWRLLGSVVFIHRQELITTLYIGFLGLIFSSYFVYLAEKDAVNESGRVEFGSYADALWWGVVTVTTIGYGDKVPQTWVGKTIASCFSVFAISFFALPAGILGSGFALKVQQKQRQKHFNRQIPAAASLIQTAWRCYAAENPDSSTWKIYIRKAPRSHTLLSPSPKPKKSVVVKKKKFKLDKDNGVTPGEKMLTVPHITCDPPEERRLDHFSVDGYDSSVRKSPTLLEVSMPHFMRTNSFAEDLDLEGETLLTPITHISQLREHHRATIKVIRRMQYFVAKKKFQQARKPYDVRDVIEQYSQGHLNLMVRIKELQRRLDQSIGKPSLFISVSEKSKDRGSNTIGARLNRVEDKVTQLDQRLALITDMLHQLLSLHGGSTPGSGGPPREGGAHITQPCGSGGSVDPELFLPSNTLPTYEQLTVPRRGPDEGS
T5 sequence (P51787 whole entry, the tested form may be a part): as the sequence (P51787 whole entry) above
T5 sequence (Q28705 whole entry, the tested form may be a part): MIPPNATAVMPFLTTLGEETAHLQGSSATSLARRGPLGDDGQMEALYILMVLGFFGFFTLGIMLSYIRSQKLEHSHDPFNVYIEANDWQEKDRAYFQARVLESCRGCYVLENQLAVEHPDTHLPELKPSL
T1 sequence (Q9MYS6 whole entry, the tested form may be a part): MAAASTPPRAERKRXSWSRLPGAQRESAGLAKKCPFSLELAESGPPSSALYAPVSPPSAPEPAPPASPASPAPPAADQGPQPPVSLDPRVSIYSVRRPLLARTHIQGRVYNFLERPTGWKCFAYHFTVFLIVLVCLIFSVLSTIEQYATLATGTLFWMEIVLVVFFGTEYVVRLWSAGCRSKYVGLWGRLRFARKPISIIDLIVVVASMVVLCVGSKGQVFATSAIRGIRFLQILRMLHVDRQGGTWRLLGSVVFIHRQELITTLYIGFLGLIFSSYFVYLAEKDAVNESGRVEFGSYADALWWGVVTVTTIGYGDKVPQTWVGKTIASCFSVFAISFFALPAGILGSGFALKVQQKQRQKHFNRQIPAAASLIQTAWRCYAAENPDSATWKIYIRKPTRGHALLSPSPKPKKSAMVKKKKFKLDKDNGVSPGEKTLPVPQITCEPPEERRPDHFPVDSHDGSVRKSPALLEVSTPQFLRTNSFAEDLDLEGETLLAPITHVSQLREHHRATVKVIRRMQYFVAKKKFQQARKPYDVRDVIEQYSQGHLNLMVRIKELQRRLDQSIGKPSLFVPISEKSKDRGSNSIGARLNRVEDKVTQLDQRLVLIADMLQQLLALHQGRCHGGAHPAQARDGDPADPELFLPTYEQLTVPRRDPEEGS
T4 sequence (Q9MYS6 whole entry): as the sequence (Q9MYS6 whole entry, the tested form may be a part) above
T4 sequence (Q28705 whole entry): as the sequence (Q28705 whole entry, the tested form may be a part) above

What is called EC50 is the concentration needed to bring the measured effect to its halfway point. Low readings indicate higher potency in that assay, high ones lower potency in that assay. As for `C[C@]12CC[C@@H]3c4ccc(O)cc4CC[C@H]3[C@@H]1CC[C@@H]2O` [17β‐E2], the figures for the ΔG max at rabbit KV7.1/human KCNE1, on guinea pig KV7.1/KCNE1 and at human KV7.1/rabbit KCNE1 were −91.9 ± 3.0 (SEM) %, −37.8 ± 3.7 (SEM) % and −77.8 ± 6.2 (SEM) %, respectively. For the same compound, the EC50 in test [1] was 2.9 µM; on rabbit KV7.1/KCNE1 it was 0.23 µM.
